Columns and labels:
[1] = target: T1, imidazole glycerol phosphate synthase (IGPS), HisH-HisF heterodimer (Thermotoga maritima, UniProt Q9X0C6+Q9X0C8); test: glutaminase assay, coupled glutamate dehydrogenase/APAD; format: biochemical
[2] = target: T1, imidazole glycerol phosphate synthase (IGPS), HisH-HisF heterodimer; test: isothermal titration calorimetry; format: binding

CCC(CNCCO)Nc1nc2c(c(=O)n(C)c(=O)n2C)n1Cc1ccccc1 (centres unmarked) [compound 3, 7-benzyl-8-[(1-{[(2-hydroxyethyl)amino]methyl}propyl)amino]-1,3-dimethyl-2,3,6,7-tetrahydro-1H-2,6-purinedione]
Ki [1]: 900 ± 70 µM | Kd [2]: 1500 ± 300 µM
